Target: human TrkA receptor (Homo sapiens (Human), UniProt P04629)
Test: TrkA functional activity, DiscoverX PathHunter assay (NGF-stimulated U2OS cells)
Assay type: cell-based
Details: U2OS cells expressing human TrkA-Prolink, Shc1-EA and p75NTR; compound 1 h, then NGF (~80% of maximal response) 3 h; luminescence
Experimental: TrkA functional activity was measured using a DiscoverX PathHunter assay. In this assay, U2OS cells express the human TrkA receptor as a fusion with the weakly complementing fragment of B-galactosidase, which DiscoverX calls “Prolink (PK)”; additionally, Shc1 is fused with a larger fragment, which is called “Enzyme Acceptor (EA)”. Activation of the TrkA receptor, upon NGF addition, results in the kinase domain being phosphorylated, resulting in subsequent recruitment of Shc1-EA protein. That recruitment results in an active B-galactosidase enzyme that is detected by addition of a chemiluminescent substrate. The human p75^NTR protein was also expressed as a co-receptor for NGF.
All reagents were purchased from DiscoverX, except for the receptor agonists (NGF, BDNF, NT3) which were purchased from Peprotech. Cells were expanded and frozen into cryovials, and stored in the vapor phase of liquid nitrogen, and thawed immediately before use. Thawed cells were added to a 384-well plate at 7500 cells/well, and allowed to incubate overnight. Compound at various concentrations was added the following morning and allowed to incubate on cells for 1 h. Then, NGF was added at a concentration sufficient to elicit ˜80% of a maximal response and allowed to incubate for 3 h at ambient temperature. DiscoverX PathHunter detection reagent was then added and the plate was further incubated for 1 h in the dark. The plate was then read via luminescence on the Perkin Elmer Envision.

human TrkA receptor, sequence (P04629 33-796): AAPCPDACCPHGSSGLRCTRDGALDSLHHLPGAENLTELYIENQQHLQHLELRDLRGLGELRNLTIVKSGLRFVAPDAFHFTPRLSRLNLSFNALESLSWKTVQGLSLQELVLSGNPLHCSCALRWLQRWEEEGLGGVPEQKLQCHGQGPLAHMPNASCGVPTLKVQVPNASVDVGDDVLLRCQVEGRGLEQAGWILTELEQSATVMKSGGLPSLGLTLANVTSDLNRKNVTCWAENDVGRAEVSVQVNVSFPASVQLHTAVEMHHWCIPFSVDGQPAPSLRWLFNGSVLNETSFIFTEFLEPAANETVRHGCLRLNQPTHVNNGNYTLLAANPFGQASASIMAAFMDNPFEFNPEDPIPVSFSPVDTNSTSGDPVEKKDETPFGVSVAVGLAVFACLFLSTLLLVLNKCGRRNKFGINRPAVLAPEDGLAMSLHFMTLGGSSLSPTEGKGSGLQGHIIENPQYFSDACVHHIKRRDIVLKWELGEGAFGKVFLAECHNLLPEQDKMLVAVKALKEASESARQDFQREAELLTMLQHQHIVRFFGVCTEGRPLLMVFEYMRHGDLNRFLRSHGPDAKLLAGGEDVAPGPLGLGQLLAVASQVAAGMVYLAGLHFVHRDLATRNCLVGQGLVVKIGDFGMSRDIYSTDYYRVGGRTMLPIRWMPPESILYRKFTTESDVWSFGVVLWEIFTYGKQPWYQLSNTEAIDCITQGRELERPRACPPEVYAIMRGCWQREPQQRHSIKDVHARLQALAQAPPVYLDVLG

Row | SMILES | IC50 [nM]
1 | Cn1ccc(-c2cc(C(=O)Nc3cn4c(CO)ncc4cc3-c3ccccc3)c(F)cc2C(F)(F)F)n1 [Compound 65, 2-Fluoro-N-(3-(hydroxymethyl)-7-phenylimidazo[1,5-a]pyridin-6-yl)-5-(1-methyl-1H-pyrazol-3-yl)-4-(trifluoromethyl)benzamide] | 4.4
2 | CC(O)c1cnc2c(NC(=O)c3cc(-c4cc[nH]n4)c(C(F)(F)F)cc3F)c(-c3ccccc3)ccn12 (single isomer, unassigned) [Compound 28, (R) or (S)-2-fluoro-N-[3-(1-hydroxyethyl)-7-phenylimidazo[1,2-a]pyridin-8-yl]-5-(1H-pyrazol-3-yl)-4-(trifluoromethyl)benzamide] | 1.8
3 | Cn1ccc(-c2cc(C(=O)Nc3c(-c4ccccc4)ccc4c(CO)cnn34)c(F)cc2C(F)(F)F)n1 [Compound 39, 2-fluoro-N-[3-(hydroxymethyl)-6-phenylpyrazolo[1,5-a]pyridin-7-yl]-5-(1-methyl-1H-pyrazol-3-yl)-4-(trifluoromethyl)benzamide] | 0.33
4 | CC(O)c1cnc2c(NC(=O)c3ccc(C(F)(F)F)c(-c4ccn(C)n4)c3)c(-c3ccccc3)ccn12 (single isomer, unassigned) [Compound 14, (R) or (S)-N-[3-(1-hydroxyethyl)-7-phenylimidazo[1,2-a]pyridin-8-yl]-3-(1-methyl-1H-pyrazol-3-yl)-4-(trifluoromethyl)benzamide] | 5.1
5 | CCOC(=O)c1cnc2c(NC(=O)c3cc(-c4ccn(C)n4)c(C(F)(F)F)s3)c(-c3ccccc3)ccn12 [Compound 66, Ethyl 8-(4-(1-methyl-1H-pyrazol-3-yl)-5-(trifluoromethyl)thiophene-2-carboxamido)-7-phenylimidazo[1,2-a]pyridine-3-carboxylate] | 204
6 | NC(=O)c1cnc2c(NC(=O)c3cc(-c4ncccn4)c(C(F)(F)F)cc3F)c(-c3ccccc3)ccn12 [Compound 7, 8-(2-Fluoro-5-(pyrimidin-2-yl)-4-(trifluoromethyl)benzamido)-7-phenylimidazo[1,2-a]pyridine-3-carboxamide] | 2.1
7 | CC(O)c1cnc2c(NC(=O)c3cc(-c4ncccn4)c(C(F)(F)F)cc3F)c(-c3ccccc3)ncn12 (single isomer, unassigned) [Compound 72, (R and S)-2-Fluoro-N-(3-(1-hydroxyethyl)-7-phenylimidazo[1,2-c]pyrimidin-8-yl)-5-(pyrimidin-2-yl)-4-(trifluoromethyl)benzamide] | 5.1
8 | Cn1ccc(-c2cc(C(=O)Nc3c(-c4ccccc4)ncn4cnnc34)ccc2C(F)(F)F)n1 [Compound 33, 3-(1-methyl-1H-pyrazol-3-yl)-N-(7-phenyl[1,2,4]triazolo[4,3-c]pyrimidin-8-yl)-4-(trifluoromethyl)benzamide] | 6.3
9 | O=C(Nc1c(-c2cccc(CO)c2)ccn2ccnc12)c1cc(-c2ncccn2)c(C(F)(F)F)cc1F [Compound 58, 2-Fluoro-N-(7-(3-(hydroxymethyl)phenyl)imidazo[1,2-a]pyridin-8-yl)-5-(pyrimidin-2-yl)-4-(trifluoromethyl)benzamide] | 232
10 | CC(O)c1nc2c(NC(=O)c3ccc(C(F)(F)F)c(-c4ccn(C)n4)c3)c(-c3ccccc3)ccc2s1 (racemic) [Compound 6, (R and S)—N-(2-(1-Hydroxyethyl)-5-phenylbenzo[d]thiazol-4-yl)-3-(1-methyl-1H-pyrazol-3-yl)-4-(trifluoromethyl)benzamide] | 11
11 | CC(O)c1cnc2c(NC(=O)c3cc(-c4ncccn4)c(C(F)(F)F)cc3F)c(-c3ccc(F)cc3)ccn12 (single isomer, unassigned) [Compound 53, (R) or (S)-2-fluoro-N-[7-(4-fluorophenyl)-3-(1-hydroxyethyl)imidazo[1,2-a]pyridin-8-yl]-5-pyrimidin-2-yl-4-(trifluoromethyl)benzamide] | 29
12 | CC(O)c1cnc2c(NC(=O)c3ccc(C(F)(F)F)c(-c4ccn(C)n4)c3)c(-c3ccccc3)ccn12 (single isomer, unassigned) [Compound 15, (R) or (S)-N-[3-(1-hydroxyethyl)-7-phenylimidazo[1,2-a]pyridin-8-yl]-3-(1-methyl-1H-pyrazol-3-yl)-4-(trifluoromethyl)benzamide] | 2.2
13 | CC(O)c1n[nH]c2c(NC(=O)c3ccc(C(F)(F)F)c(-c4ccn(C)n4)c3)c(-c3ccccc3)ccc12 (single isomer, unassigned) [Compound 48, (R) or (S)-N-[3-(1-hydroxyethyl)-6-phenyl-1H-indazol-7-yl]-3-(1-methyl-1H-pyrazol-3-yl)-4-(trifluoromethyl)benzamide] | 0.9
14 | Cn1ccc(-c2cc(C(=O)Nc3c(-c4ccccc4)ccn4c(CO)cnc34)sc2C(F)(F)F)n1 [Compound 68, N-(3-(Hydroxymethyl)-7-phenylimidazo[1,2-a]pyridin-8-yl)-4-(1-methyl-1H-pyrazol-3-yl)-5-(trifluoromethyl)thiophene-2-carboxamide] | 48
15 | CC(C)(O)c1cnc2c(NC(=O)c3cc(-c4ncccn4)c(C(F)(F)F)cc3F)c(-c3ccccc3)ncn12 [Compound 73, 2-Fluoro-N-(3-(2-hydroxypropan-2-yl)-7-phenylimidazo[1,2-c]pyrimidin-8-yl)-5-(pyrimidin-2-yl)-4-(trifluoromethyl)benzamide] | 4.8
16 | Cn1ccc(-c2cc(C(=O)Nc3c(-c4ccccc4)ccn4c(CO)cnc34)ccc2C(F)(F)F)n1 [Compound 13, N-[3-(hydroxymethyl)-7-phenylimidazo[1,2-a]pyridin-8-yl]-3-(1-methyl-1H-pyrazol-3-yl)-4-(trifluoromethyl)benzamide] | 2.4
17 | CC(O)c1n[nH]c2c(NC(=O)c3cc(-c4ncccn4)c(C(F)(F)F)cc3F)c(-c3ccccc3)ccc12 (racemic) [Compound 46, (R) and (S)-2-Fluoro-N-(3-(1-hydroxyethyl)-6-phenyl-1H-indazol-7-yl)-5-(pyrimidin-2-yl)-4-(trifluoromethyl)benzamide] | 2.9
18 | Cn1ccc(-c2cc(C(=O)Nc3c(-c4ccccc4)ccn4c(C(N)=O)cnc34)ccc2C(F)(F)F)n1 [Compound 12, 8-({[3-(1-methyl-1H-pyrazol-3-yl)-4-(trifluoromethyl)phenyl]carbonyl}amino)-7-phenylimidazo[1,2-a]pyridine-3-carboxamide] | 5.7
19 | NC(=O)Cc1cnc2c(NC(=O)c3cc(-c4ncccn4)c(C(F)(F)F)cc3F)c(-c3ccccc3)ccn12 [Compound 50, N-(3-(2-Amino-2-oxoethyl)-7-phenylimidazo[1,2-a]pyridin-8-yl)-2-fluoro-5-(pyrimidin-2-yl)-4-(trifluoromethyl)benzamide] | 28
20 | CC(O)c1cnc2c(NC(=O)c3cc(-c4ncccn4)c(C(F)(F)F)cc3F)c(-c3ccccc3)ccn12 (single isomer, unassigned) [Compound 9, (R) or (S)-2-Fluoro-N-(3-(1-hydroxyethyl)-7-phenylimidazo[1,2-a]pyridin-8-yl)-5-(pyrimidin-2-yl)-4-(trifluoromethyl)benzamide] | 3.3
21 | Cn1ccc(-c2cc(C(=O)Nc3c(-c4ccccc4)ccn4c(C(C)(C)O)cnc34)c(Cl)cc2C(F)(F)F)n1 [Compound 17, 2-chloro-N-[3-(1-hydroxy-1-methylethyl)-7-phenylimidazo[1,2-a]pyridin-8-yl]-5-(1-methyl-1H-pyrazol-3-yl)-4-(trifluoromethyl)benzamide] | 1.1
22 | Cn1ccc(-c2cc(C(=O)Nc3c(-c4ccccc4)ccc4c(C(C)(C)O)cnn34)ccc2C(F)(F)F)n1 [Compound 37, N-[3-(1-hydroxy-1-methylethyl)-6-phenylpyrazolo[1,5-a]pyridin-7-yl]-3-(1-methyl-1H-pyrazol-3-yl)-4-(trifluoromethyl)benzamide] | 4.5
23 | [2H]C(C)(O)c1cnc2c(NC(=O)c3cc(-c4ncccn4)c(C(F)(F)F)cc3F)c(-c3ccccc3)ccn12 (single isomer, unassigned) [Compound 75, (R and S)-2-Fluoro-N-(3-(1-hydroxyethyl-1-d)-7-phenylimidazo[1,2-a]pyridin-8-yl)-5-(pyrimidin-2-yl)-4-(trifluoromethyl)benzamide] | 2
24 | Cn1ccc(-c2cc(C(=O)Nc3c(-c4ccccc4)ccc4c(C(C)(C)O)cnn34)c(F)cc2C(F)(F)F)n1 [Compound 36, 2-Fluoro-N-(3-(2-hydroxypropan-2-yl)-6-phenylpyrazolo[1,5-a]pyridin-7-yl)-5-(1-methyl-1H-pyrazol-3-yl)-4-(trifluoromethyl)benzamide] | 0.4
25 | CC(=O)c1c[nH]c2c(NC(=O)c3ccc(C(F)(F)F)c(-c4ccn(C)n4)c3)c(-c3ccccc3)ccc12 [Compound 43, N-(3-Acetyl-6-phenyl-1H-indol-7-yl)-3-(1-methyl-1H-pyrazol-3-yl)-4-(trifluoromethyl)benzamide] | 5
26 | Cn1ccc(-c2cc(C(=O)Nc3cn4c(CO)ncc4nc3-c3ccccc3)c(F)cc2C(F)(F)F)n1 [Compound 61, 2-Fluoro-N-(6-(hydroxymethyl)-2-phenylimidazo[1,5-a]pyrimidin-3-yl)-5-(1-methyl-1H-pyrazol-3-yl)-4-(trifluoromethyl)benzamide] | 4

From patent US10556900B2, “TrkA kinase inhibitors, compositions and methods thereof” (Merck Sharp & Dohme Corp., priority 2015, dated 2020)
